Data published in the NIST ThermoML archive (doi:10.1016/j.jct.2012.02.035).
± gives the expanded uncertainty stated by the source.

Legend:
[1] = Crystal; DTA
[2] = Solid-liquid equilibrium temperature; details: 101 kPa; Crystal 2; DTA
[3] = Molar enthalpy of transition or fusion; details: DSC

Compound: CCCC[N+](CCCC)(CCCC)CCCC.O=[N+]([O-])[O-] [tetrabutylammonium nitrate]
- Normal melting temperature [1]: 118.0 ± 1.1 °C
- Solid-liquid equilibrium temperature [2]: 361.4 ± 0.2 K
- Molar enthalpy of transition or fusion ([3]; Crystal 2): 0.0478 ± 0.0239 kcal/mol
- Molar enthalpy of transition or fusion ([3]; Crystal): 3.42 ± 0.12 kcal/mol

Compound: CC[N+](CC)(CC)CC.O=[N+]([O-])[O-] [tetraethylammonium nitrate]
- Solid-liquid equilibrium temperature [2]: 371.5 ± 0.3 K
- Molar enthalpy of transition or fusion ([3]; Crystal 2): 2.58 ± 0.0956 kcal/mol
